Data published in US20250351832A1, “PHYTOCHEMICALS AS BIOPESTICIDES AND BIOSTIMULANTS” (KAY BEE BIO ORGANICS PVT. LTD., priority 2024, published 2025).
Like-named read-outs stand apart in the source and are kept apart here.

Key:
Alternaria alternata [1] = experiment: In vitro poisoned food technique against fungus (Ex. 20); format: cell-based; details: poisoned food technique, PDA medium, dose 1 ml/gm/lit., after seven days; for inhibition of growth at 1 mL or g/L: vs untreated control, read-out: % Inhibition of growth
Alternaria alternata [2] = experiment: Alternaria leaf spot/blight on inoculated tomato plants (Ex. 28); format: in vivo; details: tomato plants, Alternaria alternata; after 7 days; dose 1 ml/gm/lit
tomato seedlings = experiment: Response of tomato plants, greenhouse growth (Ex. 30); format: in vivo; details: tomato seedlings, dose 1 ml/gm/lit; for Plant Height 5th Day / Stem Girth 5th Day / CCI 5th Day: 5th day after application; for Plant Height 10th Day / Stem Girth 10th Day / CCI 10th Day: 10th day after application; for Plant Height % Increase over pre on 10th Day / Stem Girth % Increase over pre on 10th Day / CCI % Increase over pre on 10th Day / Root Length (cm) 10th Day / Root Length % Increase over control: 10th day; for Root Length % Increase over control: vs water control
chili seedlings = experiment: Response of chili plants, greenhouse growth (Ex. 31); format: in vivo
Aphid [3] = system: Aphid
Mealy Bug [4] = system: Mealy Bug
Helicoverpa armigera [5] = system: Helicoverpa armigera
Spodoptera litura [6] = system: Spodoptera litura
Mealy Bug [7] = system: Mealy Bug; remark: listed apart in the source
Spodoptera litura [8] = details: in vivo
Thrips [9] = system: Thrips
[10] = cited from earlier work
Spodoptera litura [11] = experiment: whole plant or invertebrate; details: 72 h
Thrips [12] = experiment: whole plant or invertebrate; details: in Gossypium hirsutum, 48 h
Aphid [13] = experiment: whole plant or invertebrate; details: 48 h
Mite [14] = details: Dose 1 ml/gm/lit.
Thrips [15] = details: Thrips on cotton leaves; dose 1 ml/gm/lit.; 10 insects/treatment; 48 hrs after application
Aphid [16] = details: Aphids on cotton plants, green house; dose 1 ml/gm/lit.; 10 insects/plant, 10 plants/treatment; 48 hrs
Mite [17] = details: mite on okra plants, green house, dose 1 ml/gm/lit. spray
Helicoverpa armigera [18] = details: Helicoverpa armigera 3rd instar on chickpea plants, dose 1 ml/gm/lit. spray
[19] = chili seedlings, dose 1 ml/gm/lit, 10th day
[20] = Table 13, descriptive, no test described
[21] = read-out: % Corrected Mortality at 72 Hrs.
[22] = read-out: % Mortality at 72 Hrs.
[23] = read-out: % Corrected Mortality at 48 Hrs.
[24] = read-out: % Mortality at 48 Hrs.
[25] = chili seedlings, dose 1 ml/gm/lit, 5th day after application
[26] = chili seedlings, dose 1 ml/gm/lit, 10th day after application
[27] = mealy bug on cotton plants, green house, dose 1 ml/gm/lit. spray, 48 hrs after application
[28] = thrips on cotton plants, greenhouse, dose 1 ml/gm/lit. spray, 48 hrs after application

## CC(C)c1ccc(C=O)cc1 [Cuminaldehyde]
Alternaria alternata [1]
  Mean colony Diameter (mm): 51.50 mm
  inhibition of growth at 1 mL or g/L: 41.5%
Alternaria alternata [2]
  % Disease reduction over Control: 52.89%
Tomato seedlings
  Plant Height 5th Day: 6.62 cm
  Stem Girth 5th Day: 1.77 mm
  Plant Height 10th Day: 7.33 cm
  Stem Girth 10th Day: 2.08 mm
  Plant Height % Increase over pre on 10th Day: 31.36%
  Stem Girth % Increase over pre on 10th Day: 64.12%
  CCI 5th Day: 13.64
  CCI % Increase over pre on 10th Day: 16.83%
  Root Length (cm) 10th Day: 3.81 cm
  CCI 10th Day: 14.65
  Root Length % Increase over control: 14.59%
Chili seedlings
  CCI Pre: 10.29
  Plant Height (cm) Pre: 4.27 cm
Chili seedlings; 120 h
  CCI 5th Day: 12.10
  Plant Height (cm) 5th Day: 5.77 cm
Chili seedlings; 240 h
  CCI 10th Day: 13.9
  Plant Height (cm) 10th Day: 6.40 cm
  Root Lenght % Increase over control: 13.94%
Chili seedlings; [19]
  CCI % Increase over pre on 10th Day: 35.08%
  Plant Height % Increase over pre on 10th Day: 50.00%
  Root Lenght (cm) 10th Day: 3.12 cm
  Stem Girth % Increase over pre on 10th Day: 40.41%
Aphid [3]; in vivo
  % Corrected Mortality at 48 Hrs.: 45.71%
  % Mortality at 48 Hrs.: 52.50%
Mealy Bug [4]; in vivo
  % Corrected Mortality at 48 Hrs.: 50.00%
Helicoverpa armigera [5]; in vivo
  Total No. of dead insect at 72 Hrs.: 3.75
Spodoptera litura [6]; in vivo
  Total No. of dead insect at 72 Hrs.: 5.25
Mealy Bug [7]; in vivo
  % Corrected Mortality at 48 Hrs.: 50.00%
Spodoptera litura [8]
  % Corrected Mortality at 72 Hrs.: 52.63%
  % Mortality at 72 Hrs.: 55.00%
Thrips [9]; in vivo
  % Corrected Mortality at 48 Hrs.: 33.33%
  % Mortality at 48 Hrs.: 40.00%
[10]; [20]
  Antifungal Activity - Mode of action: Mycelial growth inhibition
  Antioxidant Activity - Mode of action: Increase in reactive oxygen
  Bactericidal Activity - Mode of action: Great antimicrobial effects
  Insecticidal Activities - Mode of action: Acute Toxicity Effects
  Nematicidal Activity - Mode of action: Efficient hatching inhibitor
[10]; Table 13, effect on plants, descriptive
  Phytotonic Effect: Boost plant
Spodoptera litura [11]; [21]
  mortality at 1 mL or g/L: 50%
Spodoptera litura [11]; [22]
  mortality at 1 mL or g/L: 52.5%
Thrips [12]; [23]
  mortality at 1 mL or g/L: 34.3%
Thrips [12]; [24]
  mortality at 1 mL or g/L: 42.5%
Aphid [13]; [23]
  mortality at 1 mL or g/L: 47.1%
Aphid [13]; [24]
  mortality at 1 mL or g/L: 55%

## CC1CCC(C(C)C)C(O)C1 (centres unmarked) [Menthol]
Alternaria alternata [1]
  Mean colony Diameter (mm): 52.00 mm
  inhibition of growth at 1 mL or g/L: 40.9%
Alternaria alternata [2]
  % Disease reduction over Control: 56.20%
Tomato seedlings
  Plant Height 5th Day: 6.78 cm
  Stem Girth 5th Day: 1.48 mm
  Plant Height 10th Day: 7.18 cm
  Stem Girth 10th Day: 2.19 mm
  Plant Height % Increase over pre on 10th Day: 27.30%
  Stem Girth % Increase over pre on 10th Day: 54.01%
  CCI 5th Day: 13.48
  CCI % Increase over pre on 10th Day: 27.44%
  Root Length (cm) 10th Day: 3.93 cm
  CCI 10th Day: 14.35
  Root Length % Increase over control: 18.18%
Chili seedlings; [25]
  CCI 5th Day: 10.24
  Plant Height (cm) 5th Day: 6.48 cm
Chili seedlings; [19]
  CCI % Increase over pre on 10th Day: 44.78%
  Plant Height % Increase over pre on 10th Day: 45.21%
  Root Lenght (cm) 10th Day: 3.02 cm
  Stem Girth % Increase over pre on 10th Day: 42.37%
Chili seedlings; [26]
  CCI 10th Day: 13.87
  Plant Height (cm) 10th Day: 6.52 cm
Chili seedlings; chili seedlings, dose 1 ml/gm/lit, 10th day, vs water control
  Root Lenght % Increase over control: 10.37%
Aphid [3]; Dose 1 ml/gm/lit., 10 insects/treatment, 4 replications, cotton leaves
  Total No. of dead insect at 48 Hrs.: 7.00
Aphid [3]; Dose 1 ml/gm/lit., 48 hrs
  % Corrected Mortality at 48 Hrs.: 65.71%
  % Mortality at 48 Hrs.: 70.00%
Mite [14]; 10 insects/treatment, 4 replications, okra leaves
  Total No. of dead insect at 48 Hrs.: 4.50
Mite [14]; 48 hrs
  % Corrected Mortality at 48 Hrs.: 40.54%
  % Mortality at 48 Hrs.: 45.00%
Mealy Bug [4]; Mealy Bug on cotton leaves, dose 1 ml/gm/lit., 10 insects/treatment, 4 replications, 48 Hrs.
  Total No. of dead insect at 48 Hrs.: 6.50
Mealy Bug [4]; Mealy Bug on cotton leaves, dose 1 ml/gm/lit., 48 Hrs.
  % Mortality at 48 Hrs.: 65.00%
Mealy Bug [4]; Mealy Bug on cotton leaves, dose 1 ml/gm/lit., 48 Hrs., corrected for water control
  % Corrected Mortality at 48 Hrs.: 63.16%
Helicoverpa armigera [5]; Helicoverpa armigera on okra fruits, dose 1 ml/gm/lit., 10 insects/treatment, 4 replications, 72 Hrs.
  Total No. of dead insect at 72 Hrs.: 6.00
Helicoverpa armigera [5]; Helicoverpa armigera on okra fruits, dose 1 ml/gm/lit., 72 Hrs.
  % Mortality at 72 Hrs.: 60.00%
Helicoverpa armigera [5]; Helicoverpa armigera on okra fruits, dose 1 ml/gm/lit., 72 Hrs., corrected for water control
  % Corrected Mortality at 72 Hrs.: 60.00%
Spodoptera litura [6]; Spodoptera litura on castor leaves, dose 1 ml/gm/lit., 10 insects/treatment, 72 hrs after application
  Total No. of dead insect at 72 Hrs.: 2.75
Thrips [15]
  Total No. of dead insect at 48 Hrs.: 7.50
Aphid [16]
  Total No. of dead insect at 48 Hrs.: 75.00
Mite [17]; 48 hrs after application
  % Mortality at 48 Hrs.: 42.50%
  Total No. of dead insect at 48 Hrs.: 42.50
Mite [17]; 48 hrs, corrected for water control
  % Corrected Mortality at 48 Hrs.: 39.47%
Mealy Bug [7]; [27]
  % Mortality at 48 Hrs.: 67.50%
  Total No. of dead insect at 48 Hrs.: 67.50
Mealy Bug [7]; mealy bug on cotton plants, green house, dose 1 ml/gm/lit. spray, 48 hrs, corrected for water control
  % Corrected Mortality at 48 Hrs.: 63.89%
Helicoverpa armigera [18]; 72 hrs after application
  % Mortality at 72 Hrs.: 55.00%
Helicoverpa armigera [18]; 72 hrs, corrected for water control
  % Corrected Mortality at 72 Hrs.: 55.00%
Thrips [9]; [28]
  % Mortality at 48 Hrs.: 72.50%
  Total No. of dead insect at 48 Hrs.: 72.50
Thrips [9]; thrips on cotton plants, greenhouse, dose 1 ml/gm/lit. spray, 48 hrs, corrected for water control
  % Corrected Mortality at 48 Hrs.: 69.44%
[10]; [20]
  Acaricidal Activity - Mode of action: Causes mortality & reduction
  Antifungal Activity - Mode of action: Inhibits fungal growth
  Antioxidant Activity - Mode of action: Possesses antioxidant
  Bactericidal Activity - Mode of action: Menthol showed
  Insecticidal Activities - Mode of action: Lower larval weight, reduced
Spodoptera litura [11]; [21]
  mortality at 1 mL or g/L: 23.7%
Spodoptera litura [11]; [22]
  mortality at 1 mL or g/L: 27.5%
Thrips [12]; [23]
  mortality at 1 mL or g/L: 71.4%
Thrips [12]; [24]
  mortality at 1 mL or g/L: 75%
Aphid [13]; [23]
  mortality at 1 mL or g/L: 70.6%
Aphid [13]; [24]
  mortality at 1 mL or g/L: 75%
